From patent US8367659B2, “Oxazinyl isoflavonoid compounds, medicaments and use” (Marshall Edwards, Inc., priority 2007, dated 2013) come the findings set out here.

In general, EC50 refers to the midpoint of the concentration-response curve.

For assay [1], the system named is human umbilical vein smooth muscle cells (HUVSMC). Kind of assay: Proliferation of human umbilical vein smooth muscle cells (MTT). As to conditions: 10 μM; 10% FCS, 5 days; FIG. 8. In kind it is cell-based. How it is done:
The effect of test compounds on human umbilical vein smooth muscle cells (HUVSMC) was examined. Cells were seeded into 96 well plates at a low seeding rate of 1.6×10^3 cells per well, and allowed to attach for 24 hours. The cells were then washed twice with medium without FCS and incubated in medium without FCS for 20 hours to serum starve them. Analogue was prepared in medium without FCS at 20 μM and added to the plates and incubated for one hour. Final analogue concentration was therefore 10 μM. The cells were then stimulated by adding medium +20% FCS, to give a final FCS concentration of 10%. The cells were incubated until the control cells i.e. those with FCS and no compound, were just confluent (5 days). An MTT assay was performed, and difference in absorbance in analogue treated cells from the control was calculated using the formula: test/control*100−100. Results
The effect of test compounds on human umbilical vein smooth muscle cells (HUVSMC), was examined. Cells, tissue explants from a neonate (HRI—passage 2), were seeded into 96 well plates at 1×10^3 cells per well, and allowed to attach for 24 hours. They were then washed twice and incubated in medium without foetal calf serum (FCS) for 24-48 hours to serum-starve them. Test compounds were prepared in medium without FCS and added to the plates and incubated for one hour. Medium with FCS was added to give a final concentration of 10% and the plates incubated for 4-5 days until the controls were just confluent.

Assay [2] in a line: Free radical scavenging with DPPH. The settings on record: DPPH, 20 minutes, absorbance 517 nm; Table 4; read-out: Free radical scavenging ability EC50. The method, then:
The antioxidant (free radical trapping) activity of test compounds was assessed using the stable free radical compound 2,2-diphenyl-1-picrylhydrazyl (DPPH). A stock solution of DPPH was prepared at a concentration of […] in ethanol and mixed for 10 minutes prior to use. Test compounds at a concentration of 100 μM were reacted with DPPH for, 20 minutes, alter which time the absorbance at 517 nm was determined. Initial screening of was done at 100 μM. The change in absorbance at 517 nm was compared to a reagent blank (DPPH with ethanol alone). […] The IC50 values were estimated as the concentration of test compound that caused a 0.6 change in absorbance (with 1.2 absorbance units representing total scavenging of the DPPH radical).
The antioxidant (free radical trapping) activity of test compounds was assessed using the stable free radical compound 2,2-diphenyl-1-picrylhydrazyl (DPPH). A stock solution of DPPH was prepared […] in ethanol and mixed for 10 minutes prior to use. Initial screening of test compound at a concentration of 100 μM was reacted with DPPH for 20 minutes, after which time the absorbance at 517 nm was determined. The change in absorbance was compared to a reagent blank (DPPH with ethanol alone). […] The IC50 value was estimated as the concentration of test compound that causes a 0.6 change in absorbance (with 1.2 absorbance units representing total scavenging of the DPPH radical).
On the technique in general: Loss of DPPH colour is used to gauge radical scavenging.

The test system of assay [3] is TXB2 synthesis in RAW 264.7 murine macrophages. Kind of assay: LPS-induced TXB2 synthesis in RAW 264.7 murine macrophages. In kind it is cell-based, mouse. The settings on record: 10 μM; relative to vehicle alone; FIG. 4. The method, then:
(§1) The mouse macrophage cell line RAW 264.7 was cultured in DMEM supplemented with foetal calf serum (FCS), […] glutamine and 50 U/ml penicillin/streptomycin. Cells were treated with either test compound (in 0.025% DMSO) or vehicle alone, and added one hour before 50 ng/ml LPS. After incubation for 24 h, culture media was collected for PGE2 or TXB2 measurement by ELISA (Cayman Chemical), and TNFα measurement using an ELISA (Becton Dickinson). Test compounds were examined a concentration of 10 μM. […] Consequently, to assess the effect of test compounds on various analytes, cell viability was taken into consideration with the use of the formula: Actual effect of test compound=measured effect−(effect on cell viability×measured effect)

For another assay, the system named is cancer cell lines. Kind of assay: Anti-cancer activity, cancer cell lines tested as a group (MTT). The format is cell-based.
Assay [4] relates to PGE2 synthesis in RAW 264.7 murine macrophages. Nature of the assay: LPS-induced PGE2 synthesis in RAW 264.7 murine macrophages. The format is cell-based, mouse. The settings on record: 10 μM; relative to vehicle alone; FIG. 3. How it is done:
as §1

Assay [5] has as its system NO synthesis in RAW 264.7 murine macrophages. Nature of the assay: LPS-induced NO synthesis in RAW 264.7 murine macrophages (Griess). The format is cell-based, mouse. The settings on record: 10 μM; relative to vehicle alone; FIG. 6. The method, then:
as §1, with “Dickinson). Nitrite concentration is a quantitative indicator of NO production and was determined by the Griess Reaction. Briefly, 100 μL of Griess reagent was added to 50 μL of each supernatant in duplicate. The absorbance at 550 nm was measured (Molecular Devices, SpectraMax 250 microplate spectrophotometer, CA, USA), and nitrite concentrations were determined against a standard curve of sodium nitrite. The percentage nitrite inhibition was calculated as: [100−(nitrite concentration of sample/nitrite of vehicle control LPS cells)×100]. Results” for “Dickinson).”
(Griess reagent forms a coloured azo dye with nitrite.)

The next assay has as its system CP70. Nature of the assay: Anti-cancer activity, CP70 ovarian cancer cells (MTT). The format is cell-based. The settings on record: 120 h, 5 days.
In a further assay the test system is HPAC. Kind of assay: Anti-cancer activity, HPAC pancreatic cancer cells (MTT). In kind it is cell-based. As to conditions: Homo sapiens, 120 h, 5 days.
For another assay, the system named is MM200. Nature of the assay: Anti-cancer activity, MM200 melanoma cells (MTT). In kind it is cell-based. The settings on record: 120 h; 5 days, MTT.
Assay [6] addresses T1, GAL4-PPARγ fusion protein (Homo sapiens, UniProt P37231).
T1 construct: host or cells: HEK293 (human embryonic kidney), stably transfected
Nature of the assay: PPARγ activity in transfected HEK293 cells (beta-lactamase reporter). The format is cell-based. The settings on record: FIG. 13: 1 μM. The method, then:
Human HEK293 cells, stably transfected with the PPARγ ligand binding domain fused with the DNA binding domain of the GAL4 protein (GAL4-PPARγ fusion protein), produce beta-lactamase when incubated with PPARγ ligands. Transfected human kidney embryonic cells (Invitrogen Inc., Carlsbad, Calif.) were seeded onto matrigel in 96-well plates and allowed to attach overnight. The following day, vehicle alone (DMSO) or test compound at 1, 5 and 10 μM was added at varying concentrations to cells and incubated for 16-18 hours. Cells were then loaded with a FRET-based fluorescent substrate to assess beta-lactamase activity. Cells were protected from light, and incubated at room temperature for 2 h. Plates were read on a fluorescence plate reader with an excitation wavelength of 409 nm and emission wavelengths of 460 nm and 530 nm. Results were expressed as a ratio of these two wavelengths after the background (cell-free control wells) had been subtracted. PPARγ activity was thus determined by measuring beta-lactamase activity as assessed by a fluorescent product to substrate ratio.

T1 sequence (P37231 238-503 limits assumed): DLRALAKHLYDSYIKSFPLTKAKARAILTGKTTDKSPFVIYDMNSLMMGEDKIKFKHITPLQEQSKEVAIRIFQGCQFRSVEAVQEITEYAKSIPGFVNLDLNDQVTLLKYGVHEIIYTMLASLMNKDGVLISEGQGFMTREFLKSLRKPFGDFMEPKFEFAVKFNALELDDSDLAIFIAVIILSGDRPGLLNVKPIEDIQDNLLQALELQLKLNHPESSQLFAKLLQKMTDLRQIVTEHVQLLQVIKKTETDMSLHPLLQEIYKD
T1 sequence (P04386 1-147 partner limits assumed): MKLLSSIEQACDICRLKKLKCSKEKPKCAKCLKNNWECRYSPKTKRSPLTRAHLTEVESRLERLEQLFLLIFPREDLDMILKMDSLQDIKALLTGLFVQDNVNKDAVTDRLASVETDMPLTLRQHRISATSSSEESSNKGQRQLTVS

Take `Oc1ccc(C2=Cc3cc4c(cc3OC2)OCN(c2ccc(O)cc2)C4)cc1` [Compound 8, 4,4′-(Chromeno[6,7-e][1,3]oxazine-3,7 (2H,4H,8H)-diyl)diphenol]: the “effect on proliferation of HUVSMCs induced by FCS” value (“effect on proliferation” for short) in assay [1] is on record as “significantly inhibited the proliferation”. The EC50 in [2] turned out to be 16 µM. Further, the “mean change of LPS-induced TXB2 synthesis” value in [3] is on record as “greatest inhibition”.

For the compound `COc1ccc(CN2COc3cc4c(cc3C2)C=C(c2ccc(OC)c(OC)c2)CO4)cc1` [Compound 9, 7-(3,4-Dimethoxyphenyl)-3-(4-methoxybenzyl)-2,3,4,8-tetrahydrochromeno[6,7-e][1,3]oxazine], in the assay with cancer cell lines (where tested), the “toxicity against cancer cells” value is “moderate toxicity”. The “mean change of LPS-induced PGE2 synthesis” value in assay [4] is reported as “greatest inhibition”. Also, in assay [2], the concentration for a half-maximal effect (EC50) stood at 36 µM. The “mean change of LPS-induced TXB2 synthesis” value in assay [3] is reported as “greatest inhibition”.

`COc1ccc(C2=Cc3cc4c(cc3OC2)OCN(c2ccccc2)C4)cc1OC` [Compound 12, 7-(3,4-Dimethoxyphenyl)-3-phenyl-2,3,4,8-tetrahydrochromeno[6,7-e][1,3]oxazine]: in assay [4], the “mean change of LPS-induced PGE2 synthesis” value is “greatest inhibition”.

Turning to `COc1ccc(C2=Cc3cc4c(c(C)c3OC2)OCN(Cc2ccccc2)C4)cc1OC` [Compound 13, 3-Benzyl-7-(3,4-dimethoxyphenyl)-10-methyl-2,3,4,8-tetrahydrochromeno[6,7-e][1,3]oxazine], the EC50 in assay [2] was found to be 41 µM.

As for `CCCN1COc2c(cc3c(c2C)OCC(c2ccc(OC)c(OC)c2)=C3)C1` [Compound 14, 7-(3,4-Dimethoxyphenyl)-10-methyl-3-propyl-2,3,4,8-tetrahydrochromeno[6,7-e][1,3]oxazine], the “mean change of LPS-induced NO synthesis” value in assay [5] is “greatest inhibition”. Further, in assay [4], the “mean change of LPS-induced PGE2 synthesis” value is on record as “greatest inhibition”. Besides, the “mean change of LPS-induced TXB2 synthesis” value in [3] is “greatest inhibition”.

As to `Oc1ccc(C2=Cc3cc4c(cc3OC2)OCN(Cc2ccc(Cl)cc2)C4)cc1` [Compound 15, 4-(3-(4-Chlorobenzyl)-2,3,4,8-tetrahydrochromeno[6,7-e][1,3]oxazin-7-yl)phenol], the “activity against CP70, HPAC and MM200 cell lines” value with cancer cell lines (CP70, HPAC and MM200) is recorded as “active”. Also, the IC50 was 4.41 µM with CP70, 7.89 µM in the assay on HPAC and 9.4 ± 1.5 µM with MM200. Moreover, the EC50 in assay [2] was found to be 22.5 µM.

`COCCCN1COc2cc3c(cc2C1)C=C(c1ccc(O)cc1)CO3` [Compound 16, 4-(3-(3-Methoxypropyl)-2,3,4,8-tetrahydrochromeno[6,7-e][1,3]oxazin-7-yl)phenol]: the IC50 was 1000 to 5000 nM in the assay on cancer cell lines (read-out: most potent activity against the respective cell lines tested), 3.88 µM in the assay with HPAC and 1.8 µM with MM200. Besides, in assay [2], the EC50 came out at 22 µM.

As to `Cc1ccc(N2COc3cc4c(cc3C2)C=C(c2ccc(O)cc2)CO4)cc1` [Compound 18, 4-(3-p-Tolyl-2,3,4,8-tetrahydrochromeno[6,7-e][1,3]oxazin-7-yl)phenol], in assay [1], the “effect on proliferation” value is recorded as “significantly inhibited the proliferation”. In addition, the EC50 in assay [2] amounted to 29 µM. Further, in [6], the “PPARγ activation, increase in beta-lactamase activity over media only control” value (“PPARγ activation, increase” for short) is listed as “PPARγ agonist activity”.

In the case of `COc1ccc(C2=Cc3cc4c(c(C)c3OC2)OCN(c2ccc(C)cc2)C4)cc1OC` [Compound 19, 7-(3,4-Dimethoxyphenyl)-10-methyl-3-p-tolyl-2,3,4,8-tetrahydrochromeno[6,7-e][1,3]oxazine], in assay [1], the “effect on proliferation” value was “significantly inhibited the proliferation”. The “mean change of LPS-induced NO synthesis” value in assay [5] is given as “greatest inhibition”. Further, the EC50 in assay [2] came to 41 µM.

On to `Cc1ccc(N2COc3cc4c(cc3C2)C=C(c2cccc(O)c2)CO4)cc1` [Compound 20, 3-(3-p-Tolyl-2,3,4,8-tetrahydrochromeno[6,7-e][1,3]oxazin-7-yl)phenol], for which the “effect on proliferation” value in [1] is reported as “significantly inhibited the proliferation”. Besides, the EC50 in assay [2] amounted to 38 µM. In addition, the “PPARγ activation, increase” value in assay [6] is given as “PPARγ agonist activity”.

As to `N#Cc1ccc(N2COc3cc4c(cc3C2)C=C(c2cccc(O)c2)CO4)cc1` [Compound 21, 4-(7-(3-Hydroxyphenyl)chromeno[6,7-e][1,3]oxazin-3(2H,4H,8H)-yl)benzonitrile], the half-maximal effective concentration (EC50) in [2] worked out at 44 µM.

Turning to `O=[N+]([O-])c1cccc(N2COc3cc4c(cc3C2)C=C(c2ccc(O)cc2)CO4)c1` [Compound 23, 4-(3-(3-Nitrophenyl)-2,3,4,8-tetrahydrochromeno[6,7-e][1,3]oxazin-7-yl)phenol], the “mean change of LPS-induced NO synthesis” value in assay [5] is given as “greatest inhibition”. In addition, the “mean change of LPS-induced PGE2 synthesis” value in [4] is “greatest inhibition”. In addition, the EC50 in [2] worked out at 27 µM. Further, in assay [6], the “PPARγ activation, increase” value is “PPARγ agonist activity”. In addition, in assay [3], the “mean change of LPS-induced TXB2 synthesis” value is on record as “greatest inhibition”.

On to `CCCN1COc2c(cc3c(c2Br)OCC(c2ccc(O)cc2)=C3)C1` [Compound 25, 4-(10-Bromo-3-propyl-2,3,4,8-tetrahydrochromeno[6,7-e][1,3]oxazin-7-yl)phenol], for which the EC50 in [2] turned out to be 23 µM.

`Cc1c2c(cc3c1OCN(c1ccc(O)cc1)C3)C=C(c1cccc(O)c1)CO2` [Compound 26, 3,4′-(10-Methyl-chromeno[6,7-e][1,3]oxazine-3,7(2H,4H,8H)-diyl)diphenol]: the EC50 in assay [2] came out at 26 µM.

With `CC(C)(C)c1ccc(CN2COc3cc4c(cc3C2)C=C(c2ccc(O)cc2)CO4)cc1` [Compound 29, 4-(3-(4-tert-Butylbenzyl)-2,3,4,8-tetrahydrochromeno[6,7-e][1,3]oxazin-7-yl)phenol], the “PPARγ activation, increase” value in [6] is reported as “PPARγ agonist activity”.
